Test results from US20230102836A1, “Amoebicidal Compositions for Contact Lens Solutions” (University of the West of Scotland, priority 2019, published 2023).
Values after ≈ are worked out from the molar mass of the structure shown. Values joined by “and” are separate entries in the source; they are usually repeats but may differ in a detail not shown here. Identical values can stand only once. Like-named read-outs stand apart in the source and are kept apart here. Marks after values point to notes of the source that are not given here. Each block holds one compound with its values, some of them ahead of it.

Legend:
[1] = system: A. castellanii trophozoites; experiment: Cytotoxicity assay on trophozoites (resazurin / alamarBlue); type: cell-based, Acanthamoeba castellanii ATCC 50370; conditions: for IC50: Acanthamoeba castellanii
Experimental: (§1) Acanthamoeba castellanii ATCC 50370 trophozoites and cysts were cultured in Peptone Glucose (PG) medium and encystment medium (Chagla A H, Griffiths A J (1974) Microbiology: 85(1): 139-145) respectively at 25° C. Cysts were prepared by incubating trophozoites for 8 days in encystment medium and integrity validated with calcofluor (0.25 μg/ml) assay (Gatti S et al (2010) J. Med. Microbiol.; 59: 1324-1330) or sodium dodecyl sulfate (SDS, 0.5% w/v) disintegration assay (Dudley R et al (2005) Acta Trop.; 9: 100-8) and microscopic observation.
The compounds used in this study all contained alkyl-carbon chains: three APCs [dodecyl-PC (APC12), tetradecyl-PC. (APC14) and hexadecyl-PC (APC16)] (Anatrace) and four QACs [docdecyl-TMAB (QAC12), tetradecyl-TMAB (QAC14), hexadecyl-TMAB (QAC16) and octadecyl-TMAB (QAC18)](Sigma). All were prepared to a stock concentration of 1 mg/ml and diluted as required by the experimental protocol in the cytotoxicity assays. […]
[…] Resazurin (7-Hydroxy-31-phenoxazin-3-one 10-oxide; 5 mg/ml; McBride J et al (2005) J. Clin. Microbiol.; 43: 629-634) and trypan blue (0.4 μg/ml; Mafra C S P et al (2013) Investig. Ophthalmol. Vis. Si.; 54: 6363-6372) were then added to trophozoites and cysts respectively after being exposed to the compounds and the cell viability estimated microscopically and from changes in absorbance (at 595 nm and 570 nm) respectively.
(§2) Efficacy was expressed as a percentage of untreated controls for each drug concentration used and the data used to calculate the IC50. Cell density was estimated using the modified Neubaur hemocytometer and expressed as cells/ml.

[2] = cited from earlier work; for CMC value: APCs
[3] = system: A. castellanii trophozoites; experiment: Drug wash-out / alamarBlue-reversion assay, trophozoites; type: cell-based, Acanthamoeba castellanii ATCC 50370
[4] = system: A. castellanii trophozoites; experiment: Morphometric analysis of trophozoites; type: cell-based, Acanthamoeba castellanii ATCC 50370
Experimental: Acanthamoeba trophozoites ([…]) incubated without (FIG. 2A), with QAC18 at 37.5 μg/ml for 1 h at 25° C. (FIG. 2B), and 0.5% SDS for 30 min (FIG. 2C). QAC18 reduced trophozoites sizes from 29.02±0.23 (FIG. 2A) to 7.87 f 0.93 (FIG. 2B) which disintegrated after 30 min treatment with SDS (FIG. 2C).
A. castellanii trophozoites incubated with and without QAC for a duration determined by experimental protocol were examined microscopically and their sizes measured using the Open Laboratory (Improvision) calibration graticule. The mean body sizes were determined.

[5] = system: A. castellanii trophozoites; experiment: Combined assay with fixed QAC12 (alamarBlue); type: cell-based, Acanthamoeba castellanii ATCC 50370; conditions: for IC50: Acanthamoeba castellanii, 96 h, 96 h at 25° C.
Experimental: Acanthamoeba trophozoites (10^5 cells/ml. n=5/treatment) treated with 100 μg/ml doubly diluted to 0.06 μg/ml of QAC18 (a,b) or APC16 (c,d) for 96 h at 25° C. […] Similarly. APC16 alone at the same concentration (closed circle, FIG. 6C, FIG. 6D) in combination with QAC12 at 18.75 μg/ml (open squares, d) QAC12 at […] (open squares, FIG. 6C). Data are mean absorbance at 595 nm t SD; n=4 independent experiments performed in triplicates. IC50s were not statistically significant between QAC12 at both concentrations and QAC16 (p>0.05, FIG. 6A, FIG. 6B) but significant with APC16 (p<0.05, FIG. 6C, FIG. 6D).
(§3) For the combined assay, similar concentrations of QAC18 and APC16 were prepared and 18.75 μg/ml and 37.5 μg/ml of QAC12 added (to a final volume of 100 μl) were added to 10^5 cells/mi in a 96-well plate and later incubated at 25° C. for a duration determined by the experimental protocol. Resazurin (7-Hydroxy-31-phenoxazin-3-one 10-oxide; 5 mg/ml; McBride J et al (2005) J. Clin. Microbiol.; 43: 629-634) and trypan blue (0.4 μg/ml; Mafra C S P et al (2013) Investig. Ophthalmol. Vis. Si.; 54: 6363-6372) were then added to trophozoites and cysts respectively after being exposed to the compounds and the cell viability estimated microscopically and from changes in absorbance (at 595 nm and 570 nm) respectively.

[6] = system: A. castellanii cysts; experiment: Cytotoxicity assay on cysts (trypan blue); type: cell-based, Acanthamoeba castellanii ATCC 50370; conditions: Acanthamoeba castellanii
Experimental: as §1
The compounds used in this study all contained alkyl-carbon chains: three APCs [dodecyl-PC (APC12), tetradecyl-PC. (APC14) and hexadecyl-PC (APC16)] (Anatrace) and four QACs [docdecyl-TMAB (QAC12), tetradecyl-TMAB (QAC14), hexadecyl-TMAB (QAC16) and octadecyl-TMAB (QAC18)](Sigma). All were prepared to a stock concentration of 1 mg/ml and diluted as required by the experimental protocol in the cytotoxicity assays. A. castellanii trophozoites and cysts (at 10^5 cells/ml) with or without APCs or QACs (concentrations ranging from […] doubly diluted to 0.04 μg/ml to a final volume of 100 μl) in a 96-well plate were incubated at 25° C. for a duration determined by the experimental protocol.
as §3, §2

[7] = system: A. castellanii cysts; experiment: Drug wash-out / alamarBlue-reversion assay, cysts; type: cell-based, Acanthamoeba castellanii ATCC 50370; conditions: Cysts; further: key: +: indicates cells reverting back to trophozoites after washout; and capable of oxidizing reduced alamarBlue from blue to pink after 8 days; −: indicates cell that did not revert to trophozoites after wash-out and unable to oxidise reduced alamarBlue solution
Experimental: For the drug kinetic assay, viability was assessed by the linked alamarBlue-reversion assay. Drug-treated cysts were washed with PBS and fresh PG medium was added to allow reversion to trophozoites for 5 days, after which, alamar blue was added and viability estimated as described above.
The cysticidal activity of QAC16 to QAC18 strongly correlated with (a) the alkyl-carbon chain lengths (Table 2) and the duration of drug contact (FIG. 8H). Like trophozoites, death was via leakage judged by 40% and 50% increase in DNA and proteins in the external milieu after 1 h (FIGS. 9A and 9B). To investigate if the cyst were viable, a complementary viability assay that involved, drug washout, incubation in PG medium to allow reversion of viable cyst to trophozoite for 7 days, and estimation of viability using the oxidation of resazurin after 6 h.

[8] = system: Acanthamoeba trophozoites; experiment: Checkerboard dilution QAC-APC interaction (Bliss model); type: cell-based, Acanthamoeba castellanii; conditions: APC12, APC14, APC16; 96 h at 25° C.
Experimental: Acanthamoeba trophozoites (10^5 cells/ml. n=5/treatment) treated with 100 μg/ml doubly diluted to 0.06 μg/ml of QAC12 (FIG. 7A), […], QAC16 (FIG. 7C) and QAC18 (FIG. 7D) with APC 12 (i), APCI 4 (ii) and APC16 (iii) for 96 h at 25° C. Cell viability estimated by the alamarBlue assay the dose-response curves used to produce a surface analysis (right panel) and the interaction profile determined using the Bliss model. The degree of interaction characterised by the QCScore heuristic score are produced as heat map (left panel). The colour of each cell in the heatmap and the surface analysis represents the assay response at that dose combination; red to orange, antagonistic: yellow to green, additive and blue, synergistic.
The change in potency between QAC and APC prompted us to used the checkerboard dilution method to identify synergistic interactions (FIG. 7A-D). Three interaction profiles, antagonistic (orange to red), additive (yellow to green) and synergistic (blue) were observed, with optimal synergistic interactions deemed to be significant occurring between 20-38%; (FIG. 7).

[9] = Table 4, read-out: IC50 against Acanthamoeba spp
[10] = Table 5, 72 h and 96 h at 26° C., alamar blue, read-out: IC50 Acanthamoeba trophozoites

Compound: 10-Undecylenyl-1-phosphocholine [APC11UPC]
Increase in activity relative to saturated counterpart APC12 [1]: 3 fold
IC50 against Acanthamoeba spp ([1]; Table 4): 3.1 ± 0.4 µg/mL

Compound: CCCCCCCCOP(=O)([O-])OCC[N+](C)(C)C [APC8, Octylphosphocholine]
IC50 [1, 9]: 46.4 ± 2.3 µg/mL (≈ 157 µM)

Compound: CCCCCCCCCCOP(=O)([O-])OCC[N+](C)(C)C [APC10, Decylphosphocholine]
IC50 [1, 9]: 58 ± 0.9 µg/mL (≈ 179 µM)

Compound: CC(C)CCC(CCC(C)C)OP(=O)([O-])OCC[N+](C)(C)C [APC11PC, 2,8-Dimethyl-5-Nonylphosphocholine]
IC50 [1, 9]: > 37.5 µg/mL

Compound: CCCCCCCCCCCCOP(=O)([O-])OCC[N+](C)(C)C [APC12, Dodecylphosphocholine]
IC50 [1, 10]: 22.9 µg/mL and 65.2 µM
CMC value [2]: 1000.00* μM

Compound: CCCCCCCCCCCCCCOP(=O)([O-])OCC[N+](C)(C)C [APC14, Tetradecylphosphocholine]
IC50 [1, 9]: 8.9 ± 0.2 µg/mL (≈ 23.5 µM)
IC50 [1, 10]: 8.9 µg/mL and 23.4 µM
CMC value [2]: 120.00* μM

IC50 ([5]; QAC12 at 18.75 μg/ml, read-out: Estimated IC50 of APC16 with QAC12): 3.4 µg/mL
IC50 ([5]; QAC12 at 37.5 μg/ml, read-out: Estimated IC50 of APC16 with QAC12): 2.5 µg/mL
IC50 ([5]; without QAC12, read-out: IC50 of APC16 only control): 7.6 µg/mL
Compound: CCCCCCCCCCCCCCCCOP(=O)([O-])OCC[N+](C)(C)C [APC16, Hexadecylphosphocholine]
IC50 [1, 9]: 7.9 ± 0.3 µg/mL (≈ 19.4 µM)
IC50 [1, 10]: 7.9 µg/mL and 19.4 µM
Effect after APC16 wash-out and incubation in PG medium ([3]; 12.5 μg/ml to 100 μg/ml after 96 h): amoebostatic
Reduction in trophozoite size relative to untreated [4]: 4 fold
Effect after drug wash-out (inability to oxidise resazurin) ([5]; APC16 at 3.12, 4.68, 6.25 and 9.36 μg/ml combined with QAC12, not alone): cytotoxic
CMC value [2]: 13.00* μM

Compound: CCCCCCCCCCCCCCCCCCOP(=O)([O-])OCC[N+](C)(C)C [APC18, Octadecylphosphocholine]
IC50 [1, 9]: 3 ± 0.3 µg/mL (≈ 6.89 µM)

Compound: CCCCCCCCCCCC[N+](C)(C)CCCCCCCCCCCC.[Br-] [DAB, Didodecyldimethyl ammonium bromide]
IC50 [1, 9]: 27 ± 2.2 µg/mL

Compound: CCCCCCCCCCCCCC[N+](C)(C)C.[Br-] [QAC14, tetradecyltrimethyl ammonium bromide]
IC50 ([1]; Table 2, read-out: IC50 A. castellanii trophozoites): 9.07 µg/mL and 27 µM
IC50 ([6]; Table 2, read-out: IC50 A. castellanii cysts): 22.1 µg/mL and 65 µM
IC50 ([6]; after 96 h, trypan blue viability assay, read-out: Estimated IC50 against matured cysts): 15 µg/mL
Back transformation to trophozoites after drug wash-out ([3]; 9.375 μg/ml, 1 h): +
Back transformation to trophozoites after drug wash-out ([3]; 9.375 μg/ml, 24 h): +
Back transformation to trophozoites after drug wash-out ([3]; 9.375 μg/ml, 48 h): +
Back transformation to trophozoites after drug wash-out ([3]; 9.375 μg/ml, 72 h): +
Back transformation to trophozoites after drug wash-out ([3]; 9.375 μg/ml, 96 h): +
Back transformation to trophozoites after drug wash-out ([3]; 18.75 μg/ml, 1 h): +
Back transformation to trophozoites after drug wash-out ([3]; 18.75 μg/ml, 24 h): +
Back transformation to trophozoites after drug wash-out ([3]; 18.75 μg/ml, 48 h): +
Back transformation to trophozoites after drug wash-out ([3]; 18.75 μg/ml, 72 h): +
Back transformation to trophozoites after drug wash-out ([3]; 18.75 μg/ml, 96 h): +
Back transformation to trophozoites after drug wash-out ([3]; 37.50 μg/ml, 1 h): +
Back transformation to trophozoites after drug wash-out ([3]; 37.50 μg/ml, 24 h): −
Back transformation to trophozoites after drug wash-out ([3]; 37.50 μg/ml, 48 h): −
Back transformation to trophozoites after drug wash-out ([3]; 37.50 μg/ml, 72 h): −
Back transformation to trophozoites after drug wash-out ([3]; 37.50 μg/ml, 96 h): −
Amoebotoxicity after wash-out and replacement with PG medium ([3]; after 24 h at 18.75 μg/ml): amoebotoxic
Back transformation to trophozoites after drug wash-out ([7]; 9.375 μg/ml, 24 h): +
Back transformation to trophozoites after drug wash-out ([7]; 9.375 μg/ml, 48 h): +
Back transformation to trophozoites after drug wash-out ([7]; 9.375 μg/ml, 72 h): +
Back transformation to trophozoites after drug wash-out ([7]; 18.75 μg/ml, 24 h): +
Back transformation to trophozoites after drug wash-out ([7]; 18.75 μg/ml, 48 h): +
Back transformation to trophozoites after drug wash-out ([7]; 18.75 μg/ml, 72 h): +
Back transformation to trophozoites after drug wash-out ([7]; 37.50 μg/ml, 24 h): +
Back transformation to trophozoites after drug wash-out ([7]; 37.50 μg/ml, 48 h): +
Back transformation to trophozoites after drug wash-out ([7]; 37.50 μg/ml, 72 h): +
Interaction profile of QAC combined with APCs [8]: less frequent and ‘noisy’
CMC ([2]; QACs): 2.9 ± 0.1 µM
